Drawing on patent US9988408B2, “Cytotoxic agents for conjugation to a cell binding molecule” (priority 2013, dated 2018), this text covers IC50 for two compounds.

One assay has as its system Raji cells. The assay is described as follows: In vitro cytotoxicity (potency) against Raji cells, WST-8 cell viability assay. It counts as cell-based. The settings on record: Homo sapiens, 120 h, read-out: IC50 values towards Raji cells. The protocol:
In Vitro Potency Measurement Against Raji Cells in 37° C., 5 Day Incubation
(§1) General Procedure Used: Samples of unconjugated free drug compounds or drug conjugates were added to 96-well flat bottomed tissue culture plates and titrated using serial dilutions to cover the desired molar range. Antigen positive (Ag^+) or Antigen negative (Ag^−) cells were added to the wells in specific cell densities (1000˜10000 cells/wall) in such a way that there were triplicate samples for each drug concentration for each corresponding cell line. All other cell lines were grown in RPMI-1640 (catalog no. 11875-085, Invitrogen), supplemented with 10% fetal bovine serum and gentamycin. The plates were then incubated at 37° C. in an atmosphere of 5% CO2 for 5 days. At the end of the incubation period cytotoxic potencies were then assessed using a WST-8 based cell viability assay and surviving cells were measured by developing with WST-8 (2-7 hours). The absorbance in each well was measured and the surviving fraction of cells at each concentration was plotted to reveal the cytotoxicity and/or antigen specificity (of the conjugates). The potency and specificity of the antibody-drug conjugates were measured against antigen-expressing cells, with and without the additions of an excess amount of blocking unconjugated antibody to show specificity of the killing effect.
Background: Tetrazolium dyes change colour on reduction, which living cells bring about.

The next assay concerns Ramos cells. The assay is described as follows: In vitro cytotoxicity (potency) against Ramos cells, WST-8 cell viability assay. To be noted: Homo sapiens, 120 h, read-out: IC50, in vitro potency against Ramos cells. It counts as cell-based. Here is the method:
In Vitro Potency Measurement Against Ramos Cells in 37° C., 5 Day Incubation
as §1

`C=C1C[C@H]2C=Nc3cc(OCCP(=O)(CCOc4cc5c(cc4OC)C(=O)N4CC(=C)C[C@H]4C=N5)CCSSC)c(OC)cc3C(=O)N2C1` [Example 39]: the IC50 (usually the midpoint of a concentration-inhibition curve) in the assay with Raji cells was in the range of 0.005 to 0.011 nM. Regarding `COc1cc2c(cc1OCP(=O)(COc1cc3c(cc1OC)C(=O)C1C[C@@H](F)C[C@H]1C=N3)NCCCSSc1ccccn1)N=C[C@@H]1C[C@H](F)CC1C2=O` (some centres unmarked) [Example 68], the IC50 with Ramos cells lay within 0.1 to 0.5 nM.
